Entries after “also recorded” stand apart in the source; their conditions may differ.
Columns and labels:
[1] = system: Small intestine segments of rats; experiment: Cold ischemic storage (18 h, 4° C.) of rat small intestine segments in POLYSOL with or without ectoine, then in vitro reperfusion; details: for LDH liberation: ectoine (5 mg/kg) added to POLYSOL, 18 h at 4° C.
Experimental: Small intestine segments of rats were removed under standard conditions and immediately irrigated with a cold common salt solution and subsequently with a POLYSOL solution (supplied by Doorzand Medical Innovations, Amsterdam/NL). The small intestine segments removed were kept ischemically in 50 ml of nutrient solution at 4° C. for 18 hours; in half of these cases ectoine (5 mg/kg) was added to the POLYSOL solution. Following this storage time at 4° C. reperfusion of the small intestine segments took place in vitro at 37° C. using a modified KHB medium (5% Dextran 78, 0.95% KHB, 0.37 g/L CaCl2, 2 g/L glucose, 0.6 g/L dexamethasone, 70 mg/L atropine and 0.21% sodium bicarbonate). For oxygen supply purposes a mixture of 95% O2 and 5% CO2 was used. The partial pressure of the oxygen was constantly kept at more than 500 mm/hg. When reperfusion had been completed all tissue samples were deep-frozen at −80° C. in liquid nitrogen and examined to ascertain their condition, the lactate dehydrogenase (LDH) liberation and nitrite liberation as a measure of NO. Generally speaking, the formation of NOx is an indicator for (oxidative) stress to which a tissue sample is subjected.

[2] = system: rats with TNBS-induced enteritis; experiment: Enteritis induced in rats with trinitrobenzol sulfonic acid (TNBS), oral ectoine; type: in vivo
Experimental: For the purpose of closer investigation an animal model involving rats was prepared to induce enteritis by administering 10 mg/kg of trinitrobenzol sulfonic acid in 50% ethanol using a light ether anesthesia. Lesions developed which were examined macroscopically four days later. Ectoine was administered orally in various doses (30 to 300 mg/kg) for one week before the rats were given TNBS and four days thereafter.

CC1=N[C@H](C(=O)O)CCN1 [ectoine, (4S)-2-methyl-1,4,5,6-tetrahydropyrimidine-4-carboxylic acid]
LDH liberation ([1]; after 15 min reperfusion): 8.8+/−3.42 U/I | LDH liberation ([1]; after 30 min reperfusion): 25.4+/−8.2 U/I | NOx− formation ([1]; ectoine-doped POLYSOL samples after reperfusion): 0.325 ± 1.05 mmol/L | condition of the microvilli (microscopic examination) ([1]; tissue samples after 30-minute reperfusion, compared with samples in POLYSOL only): much better condition; also recorded: considerably improved condition of the microvilli | extent of the lesions (macroscopic examination) ([2]; TNBS 10 mg/kg in 50% ethanol, ectoine oral 30 to 300 mg/kg for one week before TNBS and four days thereafter, lesions examined four days later): capable of alleviating the extent of the lesions | histopathological examination of the large intestine ([2]; TNBS enteritis): protective effect of ectoine could be confirmed | glutathione level in the large intestine ([2]; TNBS enteritis, oral ectoine): caused the glutathione level in the large intestine to go down | myeloperoxidase activity ([2]; TNBS enteritis, oral ectoine): prevented changes of the myeloperoxidase activity | level of mediators (IKAM-1, DNFα, IL-1β, IL-10, LTB4, PGE2) ([2]; in the blood and in the tissue of the large intestine, TNBS enteritis): prevented changes of the level of various mediators | dose giving the maximum effect on lesions ([2]; oral, doses of 30 to 300 mg/kg tested): 100 mg/kg | effect compared with reference active agent sulfasalazine ([2]; sulfasalazine 300 mg/kg as reference, TNBS enteritis): comparable to that of sulfasalazine
